{
  "source": "patent US20020002294A1",
  "about": "“Estrogenic compounds as antiangiogenic agents” (priority 1997, published 2002)",
  "key": {"tubulin": {"system": "tubulin", "assay": "inhibition of tubulin polymerization in vitro (turbidity at 350 nm)", "format": "biochemical", "procedure": "Anti-mitotic activity can be evaluated by testing the ability of an estradiol derivative to inhibit tubulin polymerization and microtubule assembly in vitro. Microtubule assembly is followed in a Gilford recording spectrophotometer (model 250 or 2400S) equipped with electronic temperature controllers. A reaction mixture (all concentrations refer to a final reaction volume of […]) contains 1.0 M monosodium glutamate (ph 6.6), 1. omg/ml (10 μM) tubulin, 1.0 mM MgCl2, 4% (v/v) dimethylsulfoxide and 20-75μM of a composition to be tested. The 0.24 ml reaction mixtures are incubated for 15 min. at 37° C. and then chilled on ice. After addition of 10p1 2.5mM GTP, the reaction mixture is transferred to a cuvette at 0° C., and a baseline established. At time zero, the temperature controller of the spectrophotometer is set at 37° C. Microtubule assembly is evaluated by increased turbity at 350 nm.\nA. Each reaction mixture (all concentrations refer to the final reaction volume of 0.25 ml) contained 1.0 M monosodium glutamate (pH 6.6), 1.0 mg/ml (10 μM) tubulin, 1.0 mM MgCl2, 4% (v/v) dimethylsulfoxide, and either 0 (curve 1), 20μM (curve 2), 40 μM (curve 3), or 75 μM (curve 4) 2-methoxyestradiol. The 0.24 ml reaction mixtures were incubated for 15 min. at 37° C and chilled on ice. After addition of 10 μl of 2.5 mM GTP the reaction mixtures were transferred to cuvettes held at 0° C., and baselines were established. At time zero the temperature controller was set at 37° C. At the times indicated by the vertical dashed lines the temperature controller was set at the indicated temperatures.\nB. Each reaction mixture contained 0.8 M monosodium glutamate (pH 6.6), 1.2 mg/ml (12 μM) tubulin, 4% (v/v) dimethylsulfoxide, and either 0 (curve 1), 1.0 FM (curve 2), 2.0 ,M (curve 3), 3.0 μM (curve 4), or 4.0 μM (curve 5) 2-methoxyestradiol. The 0.24 ml reaction mixtures were incubated for 15 min. at 26° C. and chilled on ice. After addition of 10μl of 10 mM GTP the reaction mixtures were transferred to cuvettes held at 0° C., and baselines were established. At time zero the temperature controller was set at 26° C. At the time indicated by vertical dashed line the temperature controller was set at 0° C.\nThe method is given in Example 1.\nS.D., standard deviation."}, "[1]": {"biological_target": "T1, rat uterine cytosolic estrogen receptor (Rattus norvegicus, UniProt P06211)", "T1 construct": "from tissue; host or cells: rat uterine cytosol (per the result head)", "T1 sequence (P06211 1-600)": "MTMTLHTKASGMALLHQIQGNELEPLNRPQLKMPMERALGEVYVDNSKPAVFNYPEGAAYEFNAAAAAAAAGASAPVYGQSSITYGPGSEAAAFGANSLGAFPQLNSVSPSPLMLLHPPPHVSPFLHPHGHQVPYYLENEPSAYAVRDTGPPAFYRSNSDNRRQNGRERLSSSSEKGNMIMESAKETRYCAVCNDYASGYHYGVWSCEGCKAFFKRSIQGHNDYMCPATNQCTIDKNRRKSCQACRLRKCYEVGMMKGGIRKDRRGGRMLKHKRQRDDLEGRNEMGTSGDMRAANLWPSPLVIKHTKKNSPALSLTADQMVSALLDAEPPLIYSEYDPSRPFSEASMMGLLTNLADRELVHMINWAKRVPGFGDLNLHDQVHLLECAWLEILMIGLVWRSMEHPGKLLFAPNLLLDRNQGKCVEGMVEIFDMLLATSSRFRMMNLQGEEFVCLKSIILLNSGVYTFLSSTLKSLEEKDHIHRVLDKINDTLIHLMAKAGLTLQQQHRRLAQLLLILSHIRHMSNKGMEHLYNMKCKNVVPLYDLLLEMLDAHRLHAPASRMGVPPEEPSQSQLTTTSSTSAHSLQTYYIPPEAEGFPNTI", "assay": "Relative Binding Affinity to estrogen receptor", "settings": "at 0°; 3H-Estradiol=100", "source_text": "The tubulin activities, breast cancer cell line activities, and the cell panels most sensitive to selected analogs are shown in Tables 3 and 4."}},
  "data": [
    {"smiles": "COc1cc2c(cc1O)CCC1C2CCC2(C)C(O)CCC12", "note": "(stereo not drawn) [NSC 659853, 2-Methoxyestradiol]", "values": [
      {"measurement": "inhibition of tubulin polymerization (FIG. 1), in words", "setting": "tubulin; 20-75 μM (A) or 1.0-4.0 μM (B) 2-methoxyestradiol", "result": "inhibition of tubulin polymerization"},
      {"measurement": "IC50", "setting": "tubulin; read-out: IC50 (concentration required to inhibit tubulin polymerization by 50%), mean ± S.D., method of Example 1", "result": "1900 ± 200", "unit": "nM"},
      {"measurement": "RBA, Relative Binding Affinity to rat uterine cytosolic estrogen receptor", "setting": "[1]", "result": 0.245}
    ]}
  ]
}
